Columns and labels:
[1] = tested on: T. cruzi Arequipa strain trypomastigotes; test: Screening against bloodstream trypomastigotes, Arequipa strain (resazurin); format: cell-based, Trypanosoma cruzi
[2] = tested on: Trypanosoma cruzi epimastigotes; test: Excreted metabolites by 1H NMR; format: cell-based; conditions: epimastigotes at IC25 concentration, 72 h; succinate and pyruvate most increased
Description: 5 × 10^5 mL^−1 epimastigotes culture medium were treated by adding the compounds at IC25 concentrations in 25 cm^2 cell culture flasks for 72 h. Untreated controls were also included in triplicate. Cultures were then centrifuged and filtered, and the metabolites of the supernatants were measured by ^1H NMR (VARIAN DIRECT DRIVE 500 MHz […]) with AutoX probe, D2O as solvent and 2,2-dimethyl-2-silapentane-5-sulphonate as the reference signal. Analyses were conducted as previously reported.

[3] = tested on: T. cruzi SN3 strain epimastigotes; test: Screening against extracellular epimastigotes, SN3 strain (resazurin); format: cell-based, Trypanosoma cruzi
Description: (§1) Three different T. cruzi […] strains—MHOM/Pe/2011/Arequipa, discrete typing unit (DTU) V [26]; IRHOD/CO/2008/SN3, DTU I [27]; TINF/CH/1956/Tulahuen, DTU VI [26]—were grown at 28 °C in Gibco® RPMI 1640 Medium supplemented as previously reported, and used for in vitro screening.
(§2) Trypanocidal activity against epimastigotes was tested as previously reported. In brief, 5 × 10^5 mL^−1 epimastigotes culture medium were treated by adding the compounds in serial dilutions from 100 to 0.2 µM in 96-well plates (200 µL·well^−1) for 48 h. BZN and untreated growth control were also included in triplicate. Later, 20 μL of resazurin sodium salt (Sigma-Aldrich, St. Louis, MO, USA) was added, and the plates were incubated for another 24 h. Finally, the absorbance of the wells was measured at 570/600 nm and related to the control. The trypanocidal activity was expressed as the IC50 (inhibitory concentration 50) value using GraphPad Prism 6 software.

[4] = tested on: epimastigotes of T. cruzi Arequipa strain; test: Mitochondrial membrane potential by flow cytometry (rhodamine 123); format: cell-based, Trypanosoma cruzi; conditions: compounds at IC25 concentrations, 72 h; KCN 10 mM, 40 min; mean of three ± SD
[5] = tested on: T. cruzi Arequipa strain amastigotes; test: Screening against intracellular amastigotes in Vero cells, Arequipa strain (Giemsa counting); format: cell-based, Trypanosoma cruzi
Description: (§3) TINF/CH/1956/Tulahuen, DTU VI [26]—were grown at 28 °C in Gibco® RPMI 1640 Medium supplemented as previously reported, and used for in vitro screening. Trypanocidal activity against amastigotes was tested as previously reported. In brief, bloodstream trypomastigotes (BTs), obtained by cardiac puncture from infected BALB/c mice, were used to infect 1 × 10^4 Vero cells·well^−1 in 24-well plates with rounded coverslips at a multiplicity of infection (MOI) ratio of 10:1. After 24 h of infection, non-internalized trypomastigotes were washed and the infected cells were treated by adding the compounds in serial dilutions from 50 to 0.5 µM in […] for 72 h. BZN and untreated growth controls were also included in triplicate. Later, the number of amastigotes and infected cells were determined in Giemsa stained preparations by analysing 500 host cells randomly distributed in microscopic fields. The trypanocidal activity was expressed as the IC50 using GraphPad Prism 6 software (version 6.07).

[6] = format: in vivo, BALB/c mice; conditions: oral 20 mg/Kg/day for 5 days; acute and chronic infections
Description: (§4) All animal work (Scheme 1) and maintenance was performed under RD53/2013 and approved by the Ethics Committee on Animal Experimentation (CEEA) of the University of Granada, Spain. Female BALB/c mice (aged 10–12 weeks and 20–22 g) were used in the subsequent in vivo assays.
(§5) Infection was carried out by intraperitoneal inoculation of 5 × 10^5 BTs of T. cruzi Arequipa strain per mouse in 0.2 mL PBS [26]. The infection was monitored and on the 10th day post-infection (dpi), when BTs were visible in the bloodstream, the infection was confirmed.
(§6) Mice were divided into four groups (n = 3 per group): 0, negative control group (uninfected and untreated mice); I, positive control group (infected and untreated mice); II, BZN group (mice infected and treated with BZN); III, 15 group (mice infected and treated with 15).
(§7) The treatment for mice treated in the acute and chronic CD began when the infection was confirmed (10th dpi) and was stablished that the animals had entered the chronic CD (75th dpi), respectively (Scheme 1). Compound 15 and BZN were orally administered for 5 consecutive days at a dose of 20 mg·Kg^−1·day^−1.

[7] = tested on: T. cruzi Tulahuen strain amastigotes; test: Screening against intracellular amastigotes in Vero cells, Tulahuen strain (Giemsa counting); format: cell-based, Trypanosoma cruzi
Description: as §3

[8] = tested on: T. cruzi Arequipa strain; test: Nested amastigotes detection by PCR in nine target organs/tissues of infected BALB/c mice; format: in vivo, Trypanosoma cruzi; conditions: oral 20 mg/Kg/day for 5 days
Description: as §5, §6, §7
After CP-induced immunosuppression, the mice were euthanised using CO2 by exsanguination via cardiac puncture, and blood was collected. Then, 9 target organs/tissues were harvested: adipose, bone marrow, brain, oesophagus, heart, lung, muscle, spleen, and stomach. These organs/tissues were perfused with pre-warmed PBS to avoid contamination with BTs, and stored at −80 °C. In addition, spleens were weighed to assess splenomegaly.
DNA extraction of the target organs/tissues was performed using Wizard® Genomic DNA Purification Kit. DNA was subjected to amplification by PCR based on the sequence of the T. cruzi splice leader (SL) intergenic region using two published primers (TC and TC1) that allow the amplification of a 300 base pairs fragment in different biological samples. […]

[9] = tested on: T. cruzi Arequipa strain epimastigotes; test: Screening against extracellular epimastigotes, Arequipa strain (resazurin); format: cell-based, Trypanosoma cruzi
Description: as §1, §2

[10] = tested on: T. cruzi Arequipa strain; test: Infection reactivation by cyclophosphamide immunosuppression in infected BALB/c mice; format: in vivo, Trypanosoma cruzi; conditions: oral 20 mg/Kg/day for 5 days, related to control group
[11] = tested on: T. cruzi Arequipa strain; test: Monitoring of acute parasitaemia by counting in infected BALB/c mice; format: in vivo, Trypanosoma cruzi; conditions: acute infection
Description: as §4, §5, §6, §7
[…]. The fresh blood microscopic examination was performed from the 7th day until the day when parasitaemia was not detected (Scheme 1).

[12] = IC50 Vero cells/IC50 epimastigotes
[13] = IC50 Vero cells/IC50 amastigotes
[14] = treatment in the acute infection

**Q.** What does the source list for `c1cc2nc(c1)CNCCN(CCNCc1ccc3ccc4ccc(CNCCN5CCNCc6cccc(n6)CNCC5)nc4c3n1)CCNC2` [Compound 15]?
**A.** Selectivity Index T. cruzi Arequipa Strain T ([1]; IC50 Vero cells/IC50 trypomastigotes): 409.3; IC50 ([1]; Trypanosoma cruzi, trypomastigotes, 24 h + 4 h resazurin, mean of three ± SD): 1.6 ± 0.1 µM; excretion of catabolites compared with untreated parasites [2]: notably increased; Selectivity Index T. cruzi SN3 Strain E [3, 12]: 38.7; IC50 ([3]; Trypanosoma cruzi, epimastigotes, 48 h treatment + 24 h resazurin, mean of three ± SD, read-out: Activity IC50 T. cruzi SN3 Strain E): 16.9 ± 1.4 µM; Inhibition on mitochondrial membrane potential with respect to untreated epimastigotes [4]: 43.1%; Selectivity Index T. cruzi Arequipa Strain A [5, 13]: 262.0; IC50 ([5]; Trypanosoma cruzi, amastigotes in Vero cells, 72 h, mean of three ± SD): 2.5 ± 0.3 µM; death or body mass loss of treated mice [6]: none of the mice died or lost more than 10% body mass; Selectivity Index T. cruzi Tulahuen Strain A [7, 13]: 96.3; IC50 ([7]; Trypanosoma cruzi, TULAHUEN, amastigotes in Vero cells, 72 h, mean of three ± SD): 6.8 ± 0.7 µM; clearance of nested parasites in target organs/tissues (parasite-free organs/tissues, PCR) [8, 14]: 67%; clearance of nested parasites in target organs/tissues (parasite-free organs/tissues, PCR) ([8]; treatment in the chronic infection): 89%; Selectivity Index T. cruzi Arequipa Strain E [9, 12]: 101.7; IC50 ([9]; Trypanosoma cruzi, epimastigotes, 48 h treatment + 24 h resazurin, mean of three ± SD, read-out: Activity IC50 T. cruzi Arequipa Strain E): 6.4 ± 0.6 µM; reactivation of parasitaemia after immunosuppression [10, 14]: 60%; reactivation of parasitaemia after immunosuppression ([10]; treatment in the chronic infection (from 75th dpi)): 26%; parasitaemia reduction on the day of maximum parasitaemia ([11]; oral 20 mg/Kg/day for 5 days from 10th dpi, vs untreated control): ~ 65%; parasitaemia undetectable, days before control mice ([11]; oral 20 mg/Kg/day for 5 days, control detectable up to 50 dpi): 5 days
